Measurements reported in ChEMBL document CHEMBL5465560, “Selectivity Literature for EUbOPEN Chemogenomic Library” (2024).
One block for each molecule: values may come before it.

Tests used:
[1] = biological target: STE20-like serine/threonine-protein kinase (Homo sapiens, UniProt Q9H2G2); assay: Selectivity interaction (Kinase panel (DSF assay)) EUB0001559a SLK
[2] = biological target: T1, Dual specificity tyrosine-phosphorylation-regulated kinase 2 (Homo sapiens) (UniProt Q92630); assay: Selectivity interaction (KinomeScan (DiscoverX)) EUB0000655a DYRK2; conditions: at 10 µM
T1 sequence (whole entry): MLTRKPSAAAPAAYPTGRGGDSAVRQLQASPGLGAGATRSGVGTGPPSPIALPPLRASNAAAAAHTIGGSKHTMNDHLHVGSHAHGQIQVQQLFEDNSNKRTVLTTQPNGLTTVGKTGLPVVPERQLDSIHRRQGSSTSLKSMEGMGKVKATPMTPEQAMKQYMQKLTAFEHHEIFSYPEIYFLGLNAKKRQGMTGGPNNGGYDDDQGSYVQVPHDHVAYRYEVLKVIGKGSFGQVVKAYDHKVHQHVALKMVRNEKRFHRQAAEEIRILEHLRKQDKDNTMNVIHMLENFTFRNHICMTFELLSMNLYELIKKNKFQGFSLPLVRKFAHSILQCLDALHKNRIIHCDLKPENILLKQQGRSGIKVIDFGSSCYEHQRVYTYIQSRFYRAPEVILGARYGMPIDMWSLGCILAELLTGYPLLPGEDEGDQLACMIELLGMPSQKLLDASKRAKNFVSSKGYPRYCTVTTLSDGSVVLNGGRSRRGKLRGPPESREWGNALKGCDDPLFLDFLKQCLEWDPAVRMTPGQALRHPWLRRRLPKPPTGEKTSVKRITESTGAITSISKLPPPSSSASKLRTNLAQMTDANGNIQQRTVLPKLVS

[3] = biological target: Serine/threonine-protein kinase PLK2 (Homo sapiens, UniProt Q9NYY3); assay: Selectivity interaction (KinomeScan (DiscoverX)) EUB0000655a PLK2; conditions: at 10 µM
[4] = biological target: Serine/threonine-protein kinase Nek4 (Homo sapiens) (UniProt P51957); assay: Selectivity interaction (KinomeScan (DiscoverX)) EUB0001619a NEK4; conditions: at 1 µM
[5] = biological target: T2, Ephrin type-B receptor 1 (Homo sapiens) (UniProt P54762); assay: Selectivity interaction (KinomeScan (DiscoverX)) EUB0000595a EPHB1; conditions: at 10 µM
T2 sequence (whole entry): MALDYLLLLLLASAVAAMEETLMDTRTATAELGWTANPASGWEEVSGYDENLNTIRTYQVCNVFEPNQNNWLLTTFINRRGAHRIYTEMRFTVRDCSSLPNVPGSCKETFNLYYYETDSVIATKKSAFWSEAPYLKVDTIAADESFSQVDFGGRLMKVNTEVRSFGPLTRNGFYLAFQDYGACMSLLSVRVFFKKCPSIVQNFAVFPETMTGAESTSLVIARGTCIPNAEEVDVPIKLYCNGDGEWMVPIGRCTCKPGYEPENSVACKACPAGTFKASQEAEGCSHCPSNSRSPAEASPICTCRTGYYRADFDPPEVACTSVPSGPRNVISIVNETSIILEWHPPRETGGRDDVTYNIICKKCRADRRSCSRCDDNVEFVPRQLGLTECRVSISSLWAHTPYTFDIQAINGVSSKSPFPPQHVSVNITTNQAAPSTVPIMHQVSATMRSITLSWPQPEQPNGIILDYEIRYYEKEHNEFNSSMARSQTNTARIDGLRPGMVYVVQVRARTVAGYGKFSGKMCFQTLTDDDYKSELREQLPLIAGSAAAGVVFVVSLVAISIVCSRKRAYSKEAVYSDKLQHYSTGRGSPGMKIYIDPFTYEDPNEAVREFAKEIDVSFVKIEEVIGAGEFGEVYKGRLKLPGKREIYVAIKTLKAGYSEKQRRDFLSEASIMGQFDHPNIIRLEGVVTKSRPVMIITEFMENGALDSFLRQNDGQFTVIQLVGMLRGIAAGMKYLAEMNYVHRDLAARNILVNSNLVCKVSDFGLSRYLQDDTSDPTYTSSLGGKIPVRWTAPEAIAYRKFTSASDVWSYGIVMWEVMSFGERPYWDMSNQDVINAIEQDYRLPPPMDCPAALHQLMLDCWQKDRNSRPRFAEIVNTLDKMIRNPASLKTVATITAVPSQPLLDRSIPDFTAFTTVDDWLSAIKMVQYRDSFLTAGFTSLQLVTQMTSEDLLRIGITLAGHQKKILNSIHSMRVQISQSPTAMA

[6] = biological target: Ephrin type-A receptor 2 (Homo sapiens) (UniProt P29317); assay: Selectivity interaction (ActivX KiNativ screen (kinase selectivity in THP-1 cell lysates)) EUB0000639a EPHA2; type: subcellular; conditions: lysate
[7] = biological target: 5'-AMP-activated protein kinase catalytic subunit alpha-1 (Homo sapiens, UniProt Q13131); assay: Selectivity interaction (ActivX KiNativ screen (kinase selectivity in THP-1 cell lysates)) EUB0000639a PRKAA1; type: subcellular; conditions: lysate, at 5 µM
[8] = biological target: Cannabinoid receptor 1 (Homo sapiens, UniProt P21554); assay: Selectivity interaction (Cannabinoid CB1 calcium flux assay, agonist and antagonist mode ) EUB0000877a CNR1
[9] = biological target: T3, Dual specificity mitogen-activated protein kinase kinase 3 (Homo sapiens) (UniProt P46734); assay: Selectivity interaction (KinomeScan (DiscoverX)) EUB0000666a MAP2K3; conditions: at 10 µM
T3 sequence (whole entry): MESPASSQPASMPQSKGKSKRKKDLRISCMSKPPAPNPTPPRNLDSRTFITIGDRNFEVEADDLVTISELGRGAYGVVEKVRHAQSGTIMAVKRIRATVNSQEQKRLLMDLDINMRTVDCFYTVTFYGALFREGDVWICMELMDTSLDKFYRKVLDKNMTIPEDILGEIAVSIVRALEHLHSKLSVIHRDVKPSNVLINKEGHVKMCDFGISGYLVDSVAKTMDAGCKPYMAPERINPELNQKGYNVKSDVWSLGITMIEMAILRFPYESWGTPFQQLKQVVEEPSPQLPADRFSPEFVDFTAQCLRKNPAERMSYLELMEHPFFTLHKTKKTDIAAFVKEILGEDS

[10] = biological target: Phosphatidylinositol 4-phosphate 3-kinase C2 domain-containing subunit beta (Homo sapiens) (UniProt O00750); assay: Selectivity interaction (KinomeScan (DiscoverX)) EUB0000666a PIK3C2B; conditions: at 10 µM
Phosphatidylinositol 4-phosphate 3-kinase C2 domain-containing subunit beta (Homo sapiens), sequence (O00750 whole entry, the tested form may be a part): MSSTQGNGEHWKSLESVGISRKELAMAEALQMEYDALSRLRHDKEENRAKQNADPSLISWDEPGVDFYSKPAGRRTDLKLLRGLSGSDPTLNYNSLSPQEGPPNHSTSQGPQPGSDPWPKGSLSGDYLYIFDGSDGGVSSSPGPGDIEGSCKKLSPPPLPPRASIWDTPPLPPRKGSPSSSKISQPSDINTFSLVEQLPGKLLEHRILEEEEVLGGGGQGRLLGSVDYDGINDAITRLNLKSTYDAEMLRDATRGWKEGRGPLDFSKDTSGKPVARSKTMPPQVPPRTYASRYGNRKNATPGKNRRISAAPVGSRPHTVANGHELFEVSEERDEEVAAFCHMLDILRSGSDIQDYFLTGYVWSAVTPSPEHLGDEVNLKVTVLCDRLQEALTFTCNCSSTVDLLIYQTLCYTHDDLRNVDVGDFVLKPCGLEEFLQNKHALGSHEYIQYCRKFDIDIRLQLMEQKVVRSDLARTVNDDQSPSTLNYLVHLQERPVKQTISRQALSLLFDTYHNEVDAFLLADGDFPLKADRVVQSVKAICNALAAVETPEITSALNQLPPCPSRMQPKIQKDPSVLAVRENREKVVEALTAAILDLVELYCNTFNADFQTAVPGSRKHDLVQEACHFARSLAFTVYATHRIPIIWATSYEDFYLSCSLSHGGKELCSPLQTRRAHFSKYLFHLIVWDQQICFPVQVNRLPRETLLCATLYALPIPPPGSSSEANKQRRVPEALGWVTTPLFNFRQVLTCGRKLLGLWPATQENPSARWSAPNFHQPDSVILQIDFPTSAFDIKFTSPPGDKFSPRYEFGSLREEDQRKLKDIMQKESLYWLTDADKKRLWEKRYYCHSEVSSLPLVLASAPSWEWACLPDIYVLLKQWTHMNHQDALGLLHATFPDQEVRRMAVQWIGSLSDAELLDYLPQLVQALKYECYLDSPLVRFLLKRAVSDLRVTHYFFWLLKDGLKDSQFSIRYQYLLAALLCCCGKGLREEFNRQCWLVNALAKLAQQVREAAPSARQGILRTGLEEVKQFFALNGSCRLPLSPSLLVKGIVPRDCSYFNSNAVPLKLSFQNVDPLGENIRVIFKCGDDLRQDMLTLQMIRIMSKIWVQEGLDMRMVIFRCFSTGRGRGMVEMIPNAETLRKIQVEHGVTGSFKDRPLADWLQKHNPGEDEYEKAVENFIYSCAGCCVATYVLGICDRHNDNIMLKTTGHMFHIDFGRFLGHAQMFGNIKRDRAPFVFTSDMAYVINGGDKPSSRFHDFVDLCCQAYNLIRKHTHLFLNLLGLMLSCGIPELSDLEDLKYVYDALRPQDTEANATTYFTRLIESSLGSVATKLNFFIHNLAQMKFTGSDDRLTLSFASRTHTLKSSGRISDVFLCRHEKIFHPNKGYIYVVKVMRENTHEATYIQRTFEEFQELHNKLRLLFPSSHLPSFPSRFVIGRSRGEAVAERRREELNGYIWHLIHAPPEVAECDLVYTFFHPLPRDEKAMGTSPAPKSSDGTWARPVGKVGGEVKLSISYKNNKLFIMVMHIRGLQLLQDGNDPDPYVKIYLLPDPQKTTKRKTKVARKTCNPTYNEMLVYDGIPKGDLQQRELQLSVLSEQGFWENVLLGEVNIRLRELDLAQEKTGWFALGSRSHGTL

Ephrin type-A receptor 2 (Homo sapiens), sequence (P29317 whole entry): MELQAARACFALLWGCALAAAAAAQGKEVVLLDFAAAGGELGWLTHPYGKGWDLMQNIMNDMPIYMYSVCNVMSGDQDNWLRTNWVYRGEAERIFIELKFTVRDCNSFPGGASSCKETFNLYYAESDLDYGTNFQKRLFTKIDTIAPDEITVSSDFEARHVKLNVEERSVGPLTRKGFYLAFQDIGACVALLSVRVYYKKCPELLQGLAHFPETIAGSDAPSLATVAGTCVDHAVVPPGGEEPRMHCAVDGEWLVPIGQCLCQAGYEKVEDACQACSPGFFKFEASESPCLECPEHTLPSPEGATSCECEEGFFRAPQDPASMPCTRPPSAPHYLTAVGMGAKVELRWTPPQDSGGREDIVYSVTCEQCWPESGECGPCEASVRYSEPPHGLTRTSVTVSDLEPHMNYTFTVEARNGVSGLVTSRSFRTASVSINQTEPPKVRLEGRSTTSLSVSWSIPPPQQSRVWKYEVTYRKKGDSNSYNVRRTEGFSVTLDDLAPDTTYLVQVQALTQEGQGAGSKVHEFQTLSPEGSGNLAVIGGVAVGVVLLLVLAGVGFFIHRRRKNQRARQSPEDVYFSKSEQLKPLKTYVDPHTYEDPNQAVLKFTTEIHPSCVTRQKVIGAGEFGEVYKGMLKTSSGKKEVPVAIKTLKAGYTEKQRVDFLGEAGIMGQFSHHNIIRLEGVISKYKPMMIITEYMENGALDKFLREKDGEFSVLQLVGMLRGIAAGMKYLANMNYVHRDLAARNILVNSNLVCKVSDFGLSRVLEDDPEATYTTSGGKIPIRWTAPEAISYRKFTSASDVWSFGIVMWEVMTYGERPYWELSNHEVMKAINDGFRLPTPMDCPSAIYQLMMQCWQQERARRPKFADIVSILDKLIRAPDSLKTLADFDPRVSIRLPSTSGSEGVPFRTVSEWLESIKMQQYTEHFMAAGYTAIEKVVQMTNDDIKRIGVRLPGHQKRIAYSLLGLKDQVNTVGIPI
STE20-like serine/threonine-protein kinase, sequence (Q9H2G2 whole entry, looked up): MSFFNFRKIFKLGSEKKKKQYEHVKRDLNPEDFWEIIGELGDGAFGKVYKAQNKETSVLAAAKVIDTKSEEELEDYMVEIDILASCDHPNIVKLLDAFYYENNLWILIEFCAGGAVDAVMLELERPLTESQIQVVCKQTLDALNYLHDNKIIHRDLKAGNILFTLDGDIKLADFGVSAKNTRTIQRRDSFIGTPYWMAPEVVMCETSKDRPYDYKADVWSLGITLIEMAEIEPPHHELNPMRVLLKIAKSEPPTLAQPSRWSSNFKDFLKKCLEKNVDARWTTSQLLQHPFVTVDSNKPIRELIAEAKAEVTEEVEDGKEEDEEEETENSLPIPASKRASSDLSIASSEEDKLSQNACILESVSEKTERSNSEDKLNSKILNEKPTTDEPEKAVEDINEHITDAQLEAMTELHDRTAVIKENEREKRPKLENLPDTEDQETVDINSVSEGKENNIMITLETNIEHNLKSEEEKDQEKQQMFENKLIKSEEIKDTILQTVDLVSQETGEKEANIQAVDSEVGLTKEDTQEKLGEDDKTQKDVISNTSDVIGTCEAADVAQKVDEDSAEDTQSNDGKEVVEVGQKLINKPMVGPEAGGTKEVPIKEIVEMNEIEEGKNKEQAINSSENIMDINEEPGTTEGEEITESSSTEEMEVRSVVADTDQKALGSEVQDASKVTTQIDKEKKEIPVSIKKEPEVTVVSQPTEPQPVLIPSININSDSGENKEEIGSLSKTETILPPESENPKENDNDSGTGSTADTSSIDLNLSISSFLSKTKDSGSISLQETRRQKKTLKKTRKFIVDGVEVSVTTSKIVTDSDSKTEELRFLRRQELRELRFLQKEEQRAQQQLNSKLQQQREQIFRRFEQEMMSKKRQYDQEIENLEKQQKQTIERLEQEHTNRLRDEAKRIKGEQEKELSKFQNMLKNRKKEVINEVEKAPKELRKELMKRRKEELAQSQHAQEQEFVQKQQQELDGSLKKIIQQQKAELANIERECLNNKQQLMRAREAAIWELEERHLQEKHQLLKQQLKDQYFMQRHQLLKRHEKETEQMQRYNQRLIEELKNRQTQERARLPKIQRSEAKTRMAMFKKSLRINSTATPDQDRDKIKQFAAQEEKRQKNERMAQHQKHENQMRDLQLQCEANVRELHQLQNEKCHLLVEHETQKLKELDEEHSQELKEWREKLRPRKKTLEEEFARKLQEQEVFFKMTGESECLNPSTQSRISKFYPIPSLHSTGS
Serine/threonine-protein kinase PLK2, sequence (Q9NYY3 whole entry, looked up): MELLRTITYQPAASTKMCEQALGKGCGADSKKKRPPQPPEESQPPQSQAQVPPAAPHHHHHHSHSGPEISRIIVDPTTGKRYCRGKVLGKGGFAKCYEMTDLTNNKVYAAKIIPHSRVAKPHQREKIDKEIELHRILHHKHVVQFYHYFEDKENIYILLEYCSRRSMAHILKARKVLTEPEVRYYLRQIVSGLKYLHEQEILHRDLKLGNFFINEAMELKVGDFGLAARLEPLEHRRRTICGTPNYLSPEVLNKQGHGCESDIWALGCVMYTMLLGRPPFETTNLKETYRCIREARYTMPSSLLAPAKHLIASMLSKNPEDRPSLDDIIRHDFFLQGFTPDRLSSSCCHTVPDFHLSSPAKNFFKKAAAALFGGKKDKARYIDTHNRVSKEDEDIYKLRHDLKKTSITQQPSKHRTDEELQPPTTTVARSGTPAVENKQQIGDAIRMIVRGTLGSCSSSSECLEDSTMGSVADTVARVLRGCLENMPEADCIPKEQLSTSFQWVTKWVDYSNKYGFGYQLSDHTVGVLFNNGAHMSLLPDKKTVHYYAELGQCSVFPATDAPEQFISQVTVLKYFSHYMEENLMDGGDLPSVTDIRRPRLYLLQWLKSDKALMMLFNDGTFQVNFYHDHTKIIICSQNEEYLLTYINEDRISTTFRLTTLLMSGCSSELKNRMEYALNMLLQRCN
Cannabinoid receptor 1, sequence (P21554 whole entry): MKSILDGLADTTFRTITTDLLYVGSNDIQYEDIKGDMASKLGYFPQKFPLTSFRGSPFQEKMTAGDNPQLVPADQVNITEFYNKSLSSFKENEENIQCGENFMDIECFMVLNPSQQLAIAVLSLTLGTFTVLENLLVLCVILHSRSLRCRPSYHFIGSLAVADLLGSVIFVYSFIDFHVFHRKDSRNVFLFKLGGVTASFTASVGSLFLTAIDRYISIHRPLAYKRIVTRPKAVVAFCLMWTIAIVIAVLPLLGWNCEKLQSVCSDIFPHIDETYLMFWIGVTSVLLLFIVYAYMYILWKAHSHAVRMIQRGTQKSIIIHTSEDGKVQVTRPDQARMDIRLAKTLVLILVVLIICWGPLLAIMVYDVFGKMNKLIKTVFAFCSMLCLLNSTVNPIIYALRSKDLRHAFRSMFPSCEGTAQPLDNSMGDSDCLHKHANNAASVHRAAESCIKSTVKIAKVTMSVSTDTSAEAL

dTM [1]: 1 K
SMILES: CN(C(=O)c1cnn2cccnc12)c1cc2c(cc1N1CCOCC1)C(=O)N(C[C@@H](F)C(C)(C)O)C2

SMILES: CN(C)CCOc1ccc(-c2nc(-c3ccncc3)c(-c3ccc4c(c3)CC/C4=N\O)[nH]2)cc1
% of control [2]: 98%
% of control [3]: 92%

SMILES: N#Cc1cccc(-c2c[nH]c3ncnc(N4CCOCC4)c23)c1
% of control [4]: 100%

SMILES: COCC(=O)NC/C=C/c1ccc2ncnc(Nc3ccc(Oc4ccc(C)nc4)c(C)c3)c2c1 [CP-724714]
% of control [5]: 100%

% of inhibition ([6]; at 0.01 µM): -12.3%
% of inhibition ([6]; at 0.04 µM): -11.2%
% of inhibition ([6]; at 0.2 µM): 2.2%
% of inhibition ([6]; at 1 µM): -12.7%
% of inhibition ([6]; at 5 µM): 14.3%
% of inhibition [7]: 18.6%
SMILES: CC[C@@H]1[C@H](F)C(=O)N[C@@H]1COc1nccc2cc(C(N)=O)c(OC)cc12 [ZIMLOVISERTIB]

IC50 [8]: > 30 µM
SMILES: CCC(=O)N1CC[C@H](Nc2ncnc3c2CN(c2cnc(OC)c(C(F)(F)F)c2)CC3)C1 [LENIOLISIB]

SMILES: O=C(NOC[C@H](O)CO)c1ccc(F)c(F)c1Nc1ccc(I)cc1F
% of control [9]: 89%
% of control [10]: 100%
